US20260284014A1, “3,5-DIAMINOTRIAZOLE DERIVATIVES AND USES THEREOF FOR TREATING OCULAR DISEASES” (CENTRE NATIONAL DE LA RECHERCHE SCIENTIFIQUE, priority 2023, published 2026)

Key:
Format in all cases: cell-based
[1] = system: ERK activation (p-ERK); experiment: p-ERK immunoblotting after CXCL8 stimulation; details: 2.5 μM compound 1 h then 100 ng/ml CXCL8 for 15 min; read-out: E. p-ERK inhibition - TIME
Method: Cells were lysed in buffer containing 3% SDS, 10% glycerol and 0.825 mM Na2HPO4. 30 to 50 μg of proteins separated on 10% SDS-PAGE, transferred onto a PVDF membrane and then exposed to the appropriate antibodies. Proteins were visualized with the ECL system using horseradish peroxidase-conjugated anti-rabbit or anti-mouse antibodies.
(§1) All compounds were evaluated in different experiments. Results are represented as the mean of three independent experiments. A. ARPE-19 cells were treated with dose response of compound for 48 h. Values are reported as IC50 measured with the XTT assay. B and C. ARPE-19 cells were treated with 5 μM (B) or 1 μM (C) compound then with 200 μM H2O2 for 2 h. ROS were analyzed by cytometry. […] As illustrated in FIG. 1A. D. ARPE-19 cells were treated with 2.5 μM compound for 48 h and the level of CXCL1 mRNA was evaluated by qPCR. […] As illustrated in FIG. 1B. E. TIME cells were pre-treated with 2.5 μM compound for 1 h then stimulated with 100 ng/ml CXCL8 for 15 min p-ERK levels were analyzed by immunoblotting. HSP90 served as loading control. […] As illustrated in FIG. 1C.

[2] = system: ROS; experiment: ROS labeling by cytometry after H2O2; details: Homo sapiens, ARPE-19; for inhibition at 1 µM: 1 μM compound then 200 μM H2O2 for 2 h, read-out: C. ROS inhibition 1 μM - ARPE-19 cells; for inhibition at 5 µM: 5 μM compound then 200 μM H2O2 for 2 h, read-out: B. ROS inhibition 5 μM - ARPE-19 cells
Method: ARPE-19 cells were treated with MCK349 30 minutes then with 200 μM H2O2 for 2 h. 10 μM DCF-DA (2′,7′-Dichlorofluorescein diacetate) were added on cell media for 30 min. Cells were rinsed then detached (trypsin) and resuspended in PBS 0.5% BSA and 2 mM EDTA. The cells are analyzed by cytometry (ROS labeled with DCFDA-FITC).
as §1

[3] = system: ARPE-19 cells; experiment: Cell viability (XTT assay); details: Homo sapiens, 48 h, read-out: A. Safety IC50 on ARPE-19 cells
Method: ARPE-19 cells were incubated in a 96-well plate with different effectors for 48 hours. Fifty microliters of sodium 3′-[1-phenylaminocarbonyl)-3,4-tetrazolium]-bis(4-methoxy-6-nitro) benzene sulfonic acid hydrate (XTT) reagent was added to each well. The test is based on the cleavage of the yellow tetrazolium salt XTT to form an orange formazan dye by metabolically active cells. This bio-reduction occurs in viable cells only and is associated with NAD(P)H production through glycolysis. Therefore, the amount of formazan dye measured at 490 nm, correlates directly with the number of metabolically active cells reflecting cell proliferation, viability, and cytotoxicity. Each assay was performed in quadruplicate.
as §1

Row | Structure (SMILES) | inhibition at 2.5 µM [1] [%] | inhibition at 1 µM [2] [%] | inhibition at 5 µM [2] [%] | IC50 [3] [µM]
1 | Cc1ccccc1Cn1nc(Nc2ccccn2)nc1N [MCK269, 1-(2-methylbenzyl)-N^3-(pyridin-2-yl)-1H-1,2,4-triazole-3,5-diamine] | ≥ 50 | ≥ 50 | ≥ 50 | > 25
2 | Cc1ccc(Cn2nc(Nc3ccccc3)nc2N)cc1 [MCK271, 1-(4-methylbenzyl)-N^3-phenyl-1H-1,2,4-triazole-3,5-diamine] | ≥ 50 | ≥ 50 | ≥ 50 | > 25
3 | Nc1nc(Nc2ccccc2)nn1Cc1ccc(Cl)cc1 [MCK272, 1-(4-chlorobenzyl)-N^3-phenyl-1H-1,2,4-triazole-3,5-diamine] | ≥ 50 | < 50 | ≥ 50 | > 25
4 | Nc1nc(Nc2ccccc2)nn1Cc1cccc(C(F)(F)F)c1 [MCK273, N^3-phenyl-1-(3-(trifluoromethyl)benzyl)-1H-1,2,4-triazole-3,5-diamine] | ≥ 50 | ≥ 50 | ≥ 50 | > 25
5 | Nc1nc(Nc2ccccc2)nn1Cc1cc(F)cc(F)c1 [MCK274, 1-(3,5-difluorobenzyl)-N^3-phenyl-1H-1,2,4-triazole-3,5-diamine] | < 50 | ≥ 50 | ≥ 50 | > 25
6 | Nc1nc(Nc2ccccc2)nn1Cc1cccc([N+](=O)[O-])c1 [MCK275] | < 50 | ≥ 50 | ≥ 50 | > 25
7 | Nc1nc(Nc2ccccn2)nn1Cc1cccc(Br)c1 [MCK276, 1-(3-bromobenzyl)-N^3-(pyridin-2-yl)-1H-1,2,4-triazole-3,5-diamine] | ≥ 50 | < 50 | < 50 | > 25
8 | Nc1nc(Nc2ccccn2)nn1Cc1c(Cl)cccc1Cl [MCK278, 1-(2,6-dichlorobenzyl)-N^3-(pyridin-2-yl)-1H-1,2,4-triazole-3,5-diamine] | ≥ 50 | < 50 | < 50 | > 25
9 | Cc1ccc(Cn2nc(Nc3ccccn3)nc2N)cc1 [MCK279, 1-(4-methylbenzyl)-N^3-(pyridin-2-yl)-1H-1,2,4-triazole-3,5-diamine] | ≥ 50 | < 50 | < 50 | > 25
10 | Nc1nc(Nc2ccccn2)nn1Cc1ccc(Cl)cc1 [MCK280, 1-(4-chlorobenzyl)-N^3-(pyridin-2-yl)-1H-1,2,4-triazole-3,5-diamine] | ≥ 50 | < 50 | < 50 | > 25
11 | N#Cc1ccc(Cn2nc(Nc3ccccn3)nc2N)cc1 [MCK281, 4-((5-amino-3-(pyridin-2-ylamino)-1H-1,2,4-triazol-1-yl)methyl)benzonitrile] | ≥ 50 | < 50 | < 50 | > 25
12 | Nc1nc(Nc2ccccn2)nn1Cc1cccc(C(F)(F)F)c1 [MCK282, N^3-(pyridin-2-yl)-1-(3-(trifluoromethyl)benzyl)-1H-1,2,4-triazole-3,5-diamine] | ≥ 50 | < 50 | < 50 | > 25
13 | Nc1nc(Nc2ccccn2)nn1Cc1cc(F)cc(F)c1 [MCK283, 1-(3,5-difluorobenzyl)-N^3-(pyridin-2-yl)-1H-1,2,4-triazole-3,5-diamine] | ≥ 50 | < 50 | < 50 | > 25
14 | Nc1nc(Nc2ccccn2)nn1Cc1ccc(F)cc1F [MCK284, 1-(2,4-difluorobenzyl)-N^3-(pyridin-2-yl)-1H-1,2,4-triazole-3,5-diamine] | ≥ 50 | < 50 | < 50 | > 25
15 | Nc1nc(Nc2ccccc2)nn1Cc1ccc([N+](=O)[O-])cc1 [MCK288] | < 50 | ≥ 50 | ≥ 50 | > 25
16 | Nc1nc(Nc2ccccn2)nn1Cc1ccccc1[N+](=O)[O-] [MCK289, 1-(2-nitrobenzyl)-N^3-(pyridin-2-yl)-1H-1,2,4-triazole-3,5-diamine] | < 50 | ≥ 50 | ≥ 50 | > 25
17 | Nc1nc(Nc2ccccn2)nn1Cc1ccc([N+](=O)[O-])cc1 [MCK290, 1-(4-nitrobenzyl)-N^3-(pyridin-2-yl)-1H-1,2,4-triazole-3,5-diamine] | ≥ 50 | ≥ 50 | ≥ 50 | > 25
18 | Nc1nc(Nc2ccccn2)nn1Cc1cccc([N+](=O)[O-])c1 [MCK292, 1-(3-nitrobenzyl)-N^3-(pyridin-2-yl)-1H-1,2,4-triazole-3,5-diamine] | ≥ 50 | < 50 | < 50 | > 25
19 | Nc1nc(Nc2ccccn2)nn1CC(=O)c1cccc([N+](=O)[O-])c1 [MCK295, 2-(5-amino-3-(pyridin-2-ylamino)-1H-1,2,4-triazol-1-yl)-1-(3-nitrophenyl)ethan-1-one] | ≥ 50 | < 50 | < 50 | > 25
20 | Nc1nc(Nc2ccccc2)nn1Cc1ccccc1[N+](=O)[O-] [MCK297, 1-(2-nitrobenzyl)-N^3-phenyl-1H-1,2,4-triazole-3,5-diamine] | ≥ 50 | < 50 | < 50 | > 25
21 | COc1cc(Cn2nc(Nc3ccccc3)nc2N)cc(OC)c1OC [MCK298, N^3-phenyl-1-(3,4,5-trimethoxybenzyl)-1H-1,2,4-triazole-3,5-diamine] | ≥ 50 | < 50 | < 50 | > 25
22 | Nc1nc(Nc2ccccc2)nn1CC(=O)c1ccccc1 [MCK299, 2-(5-amino-3-(phenylamino)-1H-1,2,4-triazol-1-yl)-1-phenylethan-1-one] | ≥ 50 | < 50 | < 50 | > 25
23 | Nc1nc(Nc2ccccc2)n(CCc2ccccc2)n1 [MCK300, 1-phenethyl-N^5-phenyl-1H-1,2,4-triazole-3,5-diamine] | ≥ 50 | < 50 | < 50 | > 25
24 | Nc1nc(Nc2ccccc2)nn1CCc1ccccc1 [MCK301, 1-phenethyl-N^3-phenyl-1H-1,2,4-triazole-3,5-diamine] | < 50 | < 50 | < 50 | > 25
25 | Nc1nc(Nc2ccccc2)n(Cc2cccc(C(F)(F)F)c2)n1 [MCK338, N^5-phenyl-1-(3-(trifluoromethyl)benzyl)-1H-1,2,4-triazole-3,5-diamine] | < 50 | ≥ 50 | ≥ 50 | > 25
